According to US11149062B2, “HDAC inhibitors and methods of treatment using the same” (UWM Research Foundation, Inc., priority 2015, dated 2021):

Key:
Recombinant human HDAC4 = biological target: T1, Recombinant human HDAC4 (Homo sapiens, UniProt P56524); assay: HDAC-Glo I/II assay, HDAC4; assay type: biochemical; settings: Class IIa HDAC; compounds reduced by TCEP prior to assay; read-out: IC50 of HDAC4
T1 construct: purchased BPS Bioscience Inc
Procedure: (§1) The purified compounds of all fragments and natural product derivatives were evaluated for inhibitory effects on three different classes of HDAC proteins (class I, IIa, and IIb). […] All activity was determined by using a fluorescence-based in vitro assay. Class I HDAC proteins that were evaluated were HDAC1, HDAC2, HDAC3, HDAC8, HDAC4, and HDAC6. Class IIa HDAC protein were HDAC4 and the Class IIb HDAC protein were HDAC6.
HDAC-Glo™ I/II Assay and Screening System (Promega) was used to determine the HDAC inhibitory activity. Recombinant human HDAC1, HDAC2, HDAC3, HDAC4, HDAC6 and HDAC8 were purchased from BPS Bioscience Inc. The inhibitory activities of the test compounds against recombinant HDAC were performed according to reagent suppliers' protocols.
All test compounds were firstly dissolved in DMSO to make 10 mM stock solution. A certain amount of stock solution was diluted to 1 mM by DMSO and then reduced by tris(2-carboxyethyl)phosphine hydrochloride (TCEP) in a molar ration of 1:1.5 for 20 min at ambient temperature prior to being assayed. After reduction, a series of fivefold dilutions of each reduced compound were prepared with HDAC-Glo buffer and 25 μL of each dilution was added into a well on a 96-well plate. HDAC enzymes were diluted to the desired concentrations with HDAC-Glo buffer and 25 μL of each diluted enzyme was dispensed into a well to mix with 25 μL of testing compound at room temperature for 30-60 seconds. After the reaction mixture had been incubated at room temperature for 1 hour, 50 μL of HDAC-Glo reagent was added to each reaction well and mixed up for 30-60 seconds. Finally, the plate was incubated at room temperature for an additional 30 minutes before the luminescence was measured on a Synergy HT plate reader (Bio-Tek). The luminescence intensity data were analyzed using GraphPad Prism 5 (GraphPad Software). In the absence of any test compound, the luminescence intensity (I100) in each data set was defined as 100% activity. In the absence of both of HDAC enzymes and test compound, the luminescence intensity (I0) in each data set was defined as 0% activity. The relative activity (%) in the presence of each compound was calculated according to the following equation: % activity=(I−I0)/(I100−I0), where I=the luminescence intensity if a compound is present in the reaction. Experiments were performed in triplicate and the calculated mean values were used for plotting.

Recombinant human HDAC6 = biological target: T2, Recombinant human HDAC6 (Homo sapiens, UniProt Q9UBN7); assay: HDAC-Glo I/II assay, HDAC6; assay type: biochemical
T2 construct: purchased BPS Bioscience Inc
T2 sequence (Q9UBN7 1-1215): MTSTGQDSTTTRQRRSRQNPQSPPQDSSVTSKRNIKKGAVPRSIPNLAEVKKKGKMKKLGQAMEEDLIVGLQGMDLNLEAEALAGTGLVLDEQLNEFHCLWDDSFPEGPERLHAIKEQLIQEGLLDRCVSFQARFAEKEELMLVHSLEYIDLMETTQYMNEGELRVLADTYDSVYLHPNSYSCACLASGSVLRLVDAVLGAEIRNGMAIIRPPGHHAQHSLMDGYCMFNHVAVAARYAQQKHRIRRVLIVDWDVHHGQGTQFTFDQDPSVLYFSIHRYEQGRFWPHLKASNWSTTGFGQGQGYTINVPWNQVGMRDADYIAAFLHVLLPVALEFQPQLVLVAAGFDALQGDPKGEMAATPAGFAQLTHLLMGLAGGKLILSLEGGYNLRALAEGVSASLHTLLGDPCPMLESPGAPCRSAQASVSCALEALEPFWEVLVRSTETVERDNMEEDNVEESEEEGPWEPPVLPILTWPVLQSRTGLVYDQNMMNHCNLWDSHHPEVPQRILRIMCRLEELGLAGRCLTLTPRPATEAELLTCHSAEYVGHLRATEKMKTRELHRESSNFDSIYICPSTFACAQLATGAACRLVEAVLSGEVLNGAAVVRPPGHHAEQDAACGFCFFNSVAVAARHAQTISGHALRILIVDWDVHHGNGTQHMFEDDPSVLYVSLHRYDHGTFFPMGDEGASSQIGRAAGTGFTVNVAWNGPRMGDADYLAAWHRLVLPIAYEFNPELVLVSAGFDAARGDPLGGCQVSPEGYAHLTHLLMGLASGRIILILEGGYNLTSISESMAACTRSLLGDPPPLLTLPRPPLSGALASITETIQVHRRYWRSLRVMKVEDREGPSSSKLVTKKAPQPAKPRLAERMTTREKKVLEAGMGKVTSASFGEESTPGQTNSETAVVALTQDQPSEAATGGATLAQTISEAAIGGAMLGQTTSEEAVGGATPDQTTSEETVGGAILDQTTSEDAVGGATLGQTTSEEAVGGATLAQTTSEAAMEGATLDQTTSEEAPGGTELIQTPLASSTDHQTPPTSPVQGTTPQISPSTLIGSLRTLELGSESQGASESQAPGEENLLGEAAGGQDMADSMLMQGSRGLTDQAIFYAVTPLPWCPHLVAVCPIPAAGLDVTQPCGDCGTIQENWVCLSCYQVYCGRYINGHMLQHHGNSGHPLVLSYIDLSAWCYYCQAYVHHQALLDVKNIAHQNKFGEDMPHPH
Procedure: as §1
HDAC-Glo™ I/II Assay and Screening System (Promega) was used to determine the HDAC inhibitory activity. […]
All test compounds were firstly dissolved in DMSO to make 10 mM stock solution. […] Finally, the plate was incubated at room temperature for an additional 30 minutes before the luminescence was measured on a Synergy HT plate reader (Bio-Tek). The luminescence intensity data were analyzed using GraphPad Prism 5 (GraphPad Software). In the absence of any test compound, the luminescence intensity (I100) in each data set was defined as 100% activity. In the absence of both of HDAC enzymes and test compound, the luminescence intensity (I0) in each data set was defined as 0% activity. The relative activity (%) in the presence of each compound was calculated according to the following equation: % activity=(I−I0)/(I100−I0), where I=the luminescence intensity if a compound is present in the reaction. […]

BALB/c mice = assay: in vivo; settings: BALB/c, mouse, in vivo, ip, 2 weeks

T1 sequence (P56524 whole entry): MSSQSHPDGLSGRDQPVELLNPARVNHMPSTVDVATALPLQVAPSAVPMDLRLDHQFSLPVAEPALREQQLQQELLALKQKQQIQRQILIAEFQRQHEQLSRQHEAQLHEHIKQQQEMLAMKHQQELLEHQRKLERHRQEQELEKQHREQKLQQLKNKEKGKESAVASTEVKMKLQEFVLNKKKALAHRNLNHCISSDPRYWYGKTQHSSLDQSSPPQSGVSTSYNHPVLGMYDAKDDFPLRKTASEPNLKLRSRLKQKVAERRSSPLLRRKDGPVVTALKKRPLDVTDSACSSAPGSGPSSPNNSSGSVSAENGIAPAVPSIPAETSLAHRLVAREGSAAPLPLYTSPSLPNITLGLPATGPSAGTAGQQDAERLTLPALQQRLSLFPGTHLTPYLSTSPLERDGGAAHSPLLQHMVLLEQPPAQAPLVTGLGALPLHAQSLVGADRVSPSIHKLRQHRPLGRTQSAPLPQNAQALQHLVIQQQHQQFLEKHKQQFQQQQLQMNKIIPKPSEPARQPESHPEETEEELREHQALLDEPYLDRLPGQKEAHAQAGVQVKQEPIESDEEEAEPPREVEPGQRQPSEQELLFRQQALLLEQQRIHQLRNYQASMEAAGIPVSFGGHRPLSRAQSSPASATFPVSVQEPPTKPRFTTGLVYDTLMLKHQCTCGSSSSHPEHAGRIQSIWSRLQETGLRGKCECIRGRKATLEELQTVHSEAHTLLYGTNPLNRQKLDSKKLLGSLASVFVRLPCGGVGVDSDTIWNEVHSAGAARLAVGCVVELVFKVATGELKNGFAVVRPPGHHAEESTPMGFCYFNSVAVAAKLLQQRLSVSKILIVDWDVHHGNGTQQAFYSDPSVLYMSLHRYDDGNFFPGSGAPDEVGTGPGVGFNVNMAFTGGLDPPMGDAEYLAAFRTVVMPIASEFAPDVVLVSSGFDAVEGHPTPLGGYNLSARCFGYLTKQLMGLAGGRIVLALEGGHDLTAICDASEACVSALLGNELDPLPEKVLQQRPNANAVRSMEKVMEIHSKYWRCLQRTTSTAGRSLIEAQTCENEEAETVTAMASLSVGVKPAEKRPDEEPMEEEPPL

SMILES	IC50 (Recombinant human HDAC4)	inhibitory activity toward HDAC6 (in words) (Recombinant human HDAC6)	MTD (toxicity in healthy BALB/c mice) (BALB/c mice)
COC(=O)[C@H]1CSSCC/C=C/C(O)CC(=O)N[C@H](CCSC)C(=O)N1 (stereo partly drawn) [TDF3m, Methyl (4S,7R,12E)-11-hydroxy-7-[2-(methylsulfanyl)ethyl]-6,9-dioxo-1,2-dithia-5,8-diazacyclopentadec-12-ene-4-carboxylate]	> 1 mM	no inhibitory activity	>200 mg/kg
CSCC[C@H]1NC(=O)CC(O)/C=C/CCSSC[C@H](C(=O)O)NC1=O (stereo partly drawn) [TDF3, (4S,7R,12E)-11-hydroxy-7-[2-(methylsulfanyl)ethyl]-6,9-dioxo-1,2-dithia-5,8-diazacyclopentadec-12-ene-4-carboxylic acid]	> 1 mM	no inhibitory activity	
